Measured values as given in patent US20260248773A1, “POTASSIUM CHANNEL BLOCKERS OR DERIVATIVES THEREOF FOR PREVENTING, ALLEVIATING, AND/OR TREATING TISSUE DYSFUNCTION CAUSED BY TOXIC INSULTS” (priority 2022, published 2026).
“And” between values parts separate entries of the source, which are not always exact repeats. Equal entries are not always repeated. Where two headings read alike, the source gives them in different places.

Key:
[1] = Circulating 4-AP levels by HPLC (Example 11); format: in vivo, mice; conditions: for Circulating 4-AP levels, Amount / concentration at 1 h: 1 hour after i.p. injection, individual mice; for concentration at 1 h: mouse, blood, ip, 1 /g/kg, read-out: Circulating 4-AP levels, Amount
Protocol: 4-AP was injected i.p. at the indicated time points after the beginning of treatment. Mice received PTX on day 0 of the experiment, and half of those mice also were injected with 4-AP at this time, and every day thereafter, at a dosage of 1/g/kg. Blood samples were drawn 3 and 7 days after the beginning of the experiment and were taken 1 hour after the injection of 4-AP. Circulating levels of 4-AP were determined by HPLC analysis.

[2] = test system: chemotherapy-induced peripheral neuropathy (CIPN) caused by PTX
Protocol: More specifically, initial studies were conducted on the specific case of CIPN as induced by exposure to PTX. […] 16 week old C73L/6 female mice were given a single dose of 35 mg/kg PTX (i.p.). Animals were separated into control (saline, i.p., n=4) or treatment group (2 mg/kg 4-AP daily, i.p., n=4). Pre-treatment Catwalk scores were compared to 21 days post-PTX injection.
To align with clinical treatments, mice were treated with a PTX dose of 35 mg/kg (equivalent to approximately 110 mg/m^2 and within the clinical treatment range) for four cycles, each three weeks apart.
The studies also included a 4-AP treatment arm (n=4) with a daily dose of 2 mg/kg 4-AP administered i.p. (as per most previous studies by MN and colleagues).
To evaluate detailed functional changes in gait, the CatWalk™ (Noldus Information Technology, Wageningen, The Netherlands) method was implemented.
Sciatic nerve samples were harvested and resin-embedded, sectioned and imaged using transmission electron microscopy. Images were analyzed to calculate markers of peripheral neuropathy, namely: axon counts, fiber size, myelination (g ratio), and circumferential irregularity (FIG. 2).

PTX-induced CIPN [3] = assay: Four PTX injections, concurrent 4-AP (Example 2); format: in vivo, mice; conditions: 4-AP 1 mg/kg daily concurrent
Protocol: A subset of animals concurrently received 4-AP (1 mg/kg, daily), which was started at the same as the initial PTX treatment and continued throughout. Functional outcome responses were recorded at three-week intervals throughout the study period, and included von Frey monofilament testing, cold plate thermal sensitivity, CatWalk™ gait analysis, and nerve conduction testing. All animals had functionally demonstrable peripheral neuropathy at six weeks.

CIS-induced CIPN = format: in vivo, mice; conditions: 4-AP 1 mg/kg daily for next six weeks
Protocol: In these experiments, 16-week-old C7BL/6 female mice were treated with CIS (2.5 mg/kg, once weekly, i.p.) for eight weeks. Animals were then treated with 4-AP (1 mg/kg daily) for the next six weeks (n=4).

kidney = assay: Kidney histology (H&E) after PTX with or without 4-AP (Example 8); format: in vivo, mice; conditions: PTX day 0
Protocol: To examine effects on the kidney histological studies were conducted on this tissue. Mice received PTX on day 0 of the experiment, and half of those mice also were injected with 4-AP at this time, and every day thereafter, at a dosage of 2 mg/kg. Mice not receiving 4-AP were injected with saline to control for any stress induced by daily injections. Experimental groups also included mice receiving no PTX treatment, and treated only with daily injections of saline. Mice were sacrificed after 1 week. Mice were perfused with 4% paraformaldehyde and kidneys were sectioned and stained with haematoxylin & eosin (H&E).

[4] = test system: glial fibrillary acidic protein (GFAP); assay: GFAP immunofluorescence in corpus callosum after PTX with or without 4-AP (Example 9); format: in vivo; conditions: E0771 tumor-bearing mice; PTX 35 mg/kg day one; 4-AP daily
Protocol: To determine whether 4-AP treatment can prevent PTX-induced increases in a reactive inflammatory response in the brain, as detected by increased expression of glial fibrillary acidic protein (GFAP), 16-week-old female C57BL/6 mice were inoculated with a triple negative murine breast cancer cell line E0771. When tumors were palpable, the mice were injected with either paclitaxel and water, 4-AP, both, or saline as a control. Paclitaxel (35 mg/kg) was injected on day one and 4-AP and water were injected daily. The mice were sacrificed on day nine and their brains were perfused and harvested. Brains were cryosectioned coronally.
The mouse brain sections were stained with anti-GFAP antibodies, followed by a fluorescent secondary, for analysis via immunofluorescence.

PTX-induced CIPN [5] = assay: Repetitive PTX exposure, concurrent low-dose 4-AP weeks 1-12: function and nerve ultrastructure (Examples 3 and 4); format: in vivo, mice
Protocol: To determine whether 4-AP also conferred protection against developing CIPN when animals were repetitively exposed to PTX, 16 week old C7BL/6 female mice were given four cycles of PTX treatment at doses of 35 mg/kg PTX (i.p.). Animals were separated into control (saline, i.p.) or treatment group treated with a dose of 4AP 25% of that used in Examples 1 and 2 (i.e., 0.5 mg/kg 4-AP daily, i.p.).
To determine whether 4-AP prevented chemotherapy-induced structural damage even when chemotherapy was applied multiple times, ultrastructural analyses of tissue from mice treated with 35 mg/kg PTX, every 3 weeks, for 4 cycles of treatment was conducted. A low dose of 4-AP that was only 25% of the dose used in Examples 1 and 2 was used, which was applied at 0.5 mg/kg daily instead of 2 mg/kg daily.

[6] = test system: chronic spinal cord injury; conditions: individuals with chronic spinal cord injury; cited from earlier work
[7] = test system: acute peripheral nerve traumatic crush injuries; conditions: localized peripheral nerve crush injuries; cited from earlier work
[8] = mice treated with 4-AP only, 3 days post
[9] = mice treated with PTX + 4-AP, 7 day 1st draw
[10] = 3 weeks after one 35 mg/kg PTX, 2 mg/kg 4-AP daily
[11] = single 35 mg/kg PTX i.p., 2 mg/kg 4-AP daily i.p., vs saline control
[12] = single 35 mg/kg PTX, 2 mg/kg 4-AP daily i.p., pre-treatment vs 21 days post-PTX
[13] = four cycles 35 mg/kg PTX, 0.5 mg/kg 4-AP daily
[14] = four cycles 35 mg/kg PTX, 0.5 mg/kg 4-AP daily i.p.

Compound: Nc1ccncc1 [4-AP, 4-aminopyridine]
- PTX-induced changes in kidney function (inferred from 4-AP renal clearance) ([1]; PTX day 0, 4-AP daily): prevented PTX-induced changes in kidney function
- circulating 4-AP levels, 4-AP alone versus 4-AP+PTX ([1]; day 3 or day 7, 1 hour after i.p. injection): did not differ
- Circulating 4-AP levels, Amount [1, 8]: 0.393 µM and 0.376 µM and 0.486 µM and 0.427 µM
- Circulating 4-AP levels, Amount ([1]; mice treated with 4-AP only, 7 day 1st draw): 0.376 µM and 0.246 µM and 0.293 µM and 0.140 µM and 0.337 µM
- Circulating 4-AP levels, Amount ([1]; mice treated with PTX + 4-AP, 3 days post): 0.721 µM and 0.504 µM and 0.312 µM and 0.321 µM and 0.277 µM
- Circulating 4-AP levels, Amount [1, 9]: 0.292 µM and 0.274 µM and 0.236 µM and 0.231 µM
- concentration at 1 h [1, 8]: 298 nM
- concentration at 1 h [1, 9]: 352 nM
- PTX-induced changes in mitochondrial size and health ([2]; 2 mg/kg 4-AP daily i.p.): decreased PTX-induced changes in mitochondrial size and health
- signs of CIPN ([2]; 2 mg/kg 4-AP daily i.p. vs saline, n=4): significantly reduced signs of CIPN
- G ratio (axon:myelin area), sciatic nerve [2, 10]: better myelinated than the control group
- axon circularity, sciatic nerve [2, 10]: more regularly structured than the control group
- nerve conduction latency [2, 11]: significantly smaller increase in latency
- nerve conduction velocity [2, 11]: significantly smaller decrease in velocity
- Catwalk stance phase [2, 12]: no significant changes
- Catwalk swing phase [2, 12]: no significant changes
- mechanical allodynia, Von Frey filament testing (PTX-induced CIPN [3]; four 35 mg/kg PTX i.p. at three-week intervals): no changes from baseline in their response
- amplitude and velocity of nerve impulse conduction (PTX-induced CIPN [3]; four 35 mg/kg PTX): prevented the development of these changes
- loss of cold sensitivity, paw lifts and hind paw licks on cold plate (PTX-induced CIPN [3]; four 35 mg/kg PTX): prevented the development of these changes
- sensitivity to cold, jumps off cold plate (PTX-induced CIPN [3]; four 35 mg/kg PTX): no changes from baseline in this parameter
- body weight (CIS-induced CIPN; CIS 2.5 mg/kg once weekly i.p. for eight weeks): regained normal body weight
- hyperalgesia, Von Frey filament analysis (CIS-induced CIPN; CIS eight weeks): restoration of normal levels of sensitivity
- nerve impulse amplitude (CIS-induced CIPN; CIS eight weeks): also restored by 4-AP treatment
- nerve impulse velocity (CIS-induced CIPN; CIS eight weeks): also restored by 4-AP treatment
- proximal and distal tubules, H&E staining (kidney; 4-AP 2 mg/kg daily, sacrificed after 1 week): normal proximal and distal tubules
- histological kidney damage caused by PTX exposure (kidney; 4-AP co-treatment): prevented multiple aspects of histological kidney damage
- PTX-induced increased expression of GFAP, corpus callosum [4]: greatly reduced
- G ratio (axon:myelin area) (PTX-induced CIPN [5]; [13]): better myelinated than the control (PTX+Saline) group
- axon circularity (PTX-induced CIPN [5]; [13]): more regularly structured than the control group
- frequency of degenerating myelin profiles (PTX-induced CIPN [5]; [13]): decreased frequency of degenerating myelin profiles
- gait abnormalities, Catwalk analyses (PTX-induced CIPN [5]; [14]): ameliorated PTX-induced gait abnormalities
- jumping behavior, cold-plate stimulus (PTX-induced CIPN [5]; [14]): highly significant at Weeks 6, 9 and 12
- nerve conduction (latency, amplitude, velocity) (PTX-induced CIPN [5]; [14]): ameliorated PTX-induced abnormalities in nerve conduction
- pawlifts, cold-plate stimulus (PTX-induced CIPN [5]; [14]): trended significant at Weeks 6 and 9 and were highly significant at Week 12
- mechanical hypersensitivity, von Frey filament testing (PTX-induced CIPN [5]; four cycles 35 mg/kg PTX, 0.5 mg/kg 4-AP daily i.p. weeks 1-12): ameliorated PTX-induced mechanical hypersensitivity
- mitochondrial health by mitochondrial structure (PTX-induced CIPN [5]; repetitive exposure to chemotherapy, 0.5 mg/kg 4-AP daily): improves mitochondrial health
- Phase III outcome [6]: failed to reveal significant benefits
- neuropathic pain [6]: decrease neuropathic pain in some individuals
- recovery of thermal hyperalgesia and mechanical allodynia [7]: enhanced recovery on the specific parameter or thermal hyperalgesia, but not mechanical allodynia
